Experimental data taken from patent publication US20050089535A1, “Delivery of biologically active agents” (priority 2002, published 2005).

Experiment: Use of the Weston needleless injector to evaluate penetration of the cervix (dye track)
Set-up: species or system human
Details: 0.2 ml of 1 mg/ml methylene blue in phosphate buffered saline, Weston needleless injector held against ectocervix, ex vivo cervix from non-pregnant women
Protocol: A Weston needleless injector was loaded with 0.2 ml of dye (1 mg/ml of methylene blue {Sigma} in phosphate buffered saline). Whole human cervix was obtained at hysterectomy from non-pregnant women of reproductive age. The cervix was tested within 30 minutes of removal from the patient. The needleless injector device was held against the ectocervix region. Increased pressure on the needleless injector activated the device. Two injections were performed for each specimen.
The cervix was dissected along the track of the injection (FIG. 2) and the length of the dye track was measured. In four experiments the length of the track was a mean of 6.1 mm (standard error of the mean=1.9 mm). The mean lateral spread (any signs of the blue dye) was 8.8 mm.

CN(C)c1ccc2nc3ccc(=[N+](C)C)cc-3sc2c1 [dye, methylene blue]
mean lateral spread (any signs of the blue dye): 8.8 mm
length of the dye track (mean) (four experiments, SEM 1.9 mm): 6.1 mm
